Measurements published in article PMC6270778, “Novel Cinnamic Acid Derivatives as Antioxidant and Anticancer Agents: Design, Synthesis and Modeling Studies” (Molecules, 2014).
Where “and” joins values, the source holds several entries; their conditions need not be identical. Identical values can stand only once. Marks after values point to notes of the source that are not given here.

Tests used:
[1] = Determination of RM values by reversed phase TLC (RPTLC); assay type: physicochemical; conditions: CH3OH:H2O:CH3COOH (77:23:0.1), average of at least 10 measurements
Method: Lipophilicity represents a significant physicochemical property for the absorption, distribution, metabolism and excretion of drugs (ADME properties). In this study the experimentally lipophilicity as RM values is measured by the reverse-phase thin layer chromatography (RPTLC), a reliable, fast and convenient method. The obtained values were compared with the corresponding log P values in n-octanol-buffer estimated by ClogP [33, 34]. It is well known that lipophilicity plays an important role at the ADME properties. In the present study additionally, it influences the radical scavenging property (i.e., in an aqueous phase) or the chain-breaking antioxidant activity (i.e., in biological membranes).
Reversed phase TLC (RPTLC) was studied using silica gel plates saturated with 55% (v/v) liquid paraffin in light petroleum ether and methanol/water mixture (77/23, v/v) containing 0.1% of acetic acid was used as a mobile phase. Spots were detected under UV light or by iodine vapours. RM values were determined by the corresponding Rf values (from ten individual measurements) using the equation RM = log [(1/Rf) − 1] [23, 24, 25].

[2] = Interaction with the stable radical DPPH
Method: The novel acids were studied for the antioxidant activity by the use of the sTable 2,2-diphenyl-1-picrylhydrazyl radical (DPPH) at concentrations 0.05 and 0.1 mM after 20 and 60 min (Table 2). In the DPPH assay, the dominant chemical reaction involved is the reduction of the DPPH radical by single electron transfer SET from the antioxidant. Phenolic compounds eg. […] The compounds presented reducing abilities which ranged nearly 29% (4ii), small differences were found among the compounds with time and concentration. […] Due to steric reasons the interaction of DPPH with the tested compounds is low.
To a solution of DPPH in absolute ethanol the appropriate volume of the compounds (0.05 and 0.1 mM final concentrations) dissolved in DMSO was added. The absorbance was recorded at 517 nm after 20 and 60 min at room temperature (Table 3).

[3] = ABTS+ decolorization assay; conditions: 0.1 mM
Method: The ABTS^•+ is derived from the oxidation of ABTS by potassium persulfate. It is a decolorization assay. The addition of electron-donating antioxidants leads to ABTS^•+ reduction. The chemistry taking place involves the direct generation of the ABTS^•+ with no involvement of an intermediary radical.
In this assay, ethanol is used for the dilution of the ABTS^+• solution. ABTS is dissolved in water to a 7 mM and reacts with 2.45 mM […] to produce the ABTS radical cation (ABTS^+•) by allowing the mixture to stand in the dark at room temperature for 12–16 h before use. Ten μL of diluted ABTS^+• solution (734 nm) is added to 10 μL of antioxidant compounds or Trolox standards (final concentration 0–0.1 mM) in ethanol and the absorbance is measured at 30 °C exactly 1 min after the initial mixing (Table 3).

A-549 (lung) = test: SRB cytotoxicity assay, A-549; assay type: cell-based; conditions: Homo sapiens, A549, 50% growth inhibition, 48 h exposure
Method: Human cancer cell lines used as targets were HT-29 (colon), A-549 (lung), OAW-42 (ovarian), MDA-MB-231 (breast), HeLa (immortal cells from cervical cancer). All cells were obtained from the American Type Culture Collection (ATCC). Cells were routinely grown as monolayer cell cultures in T-75 flasks (Costar) in an atmosphere containing 5% CO2 in air and 100% relative humidity at 37 °C and subcultured twice a week, restricting the total number of cell passages below 20. The culture medium used was Dulbecco’s modified Eagle’s medium (DMEM, Gibco, Grand Island, NY, USA) supplemented with 10% fetal bovine serum (Gibco), 2 mM glutamine (Sigma), 100 μg/mL streptomycin and 100 IU/mL penicillin.
(§1) Cell passages were carried out by detaching adherent, logarithmically growing cells after addition of 2–3 mL of a mixture of 0.05% solution of trypsin (Gibco, 1:250) in phosphate-buffered saline (PBS) with 0.02% EDTA and incubation for 3–5 min at 37 °C. For the experiments, cells were plated (100 μL containing 10,000 cells/well) in 96-well flat-bottom microplates microplates (Costar-Corning, Acton, MA 01720, USA) so that untreated cells were in exponential growth phase at the time of cytotoxicity evaluation. Cells were left for 24 h at 37 °C to resume exponential growth and stabilization and afterwards exposed to tested agents for 48 h by the addition of an equal volume (100 μL) of either complete culture medium (control wells), or twice the final drug concentrations diluted in complete culture medium (test wells). Drug cytotoxicity was measured by means of the SRB colorimetric assay estimating the survival fractions (SF) as the percent of control (untreated cells) absorbance. The SRB assay was carried out as previously described and modified by our group. In brief, culture medium was aspirated prior to fixation using a microplate-multiwash device (Tri-Continent Scientific, Inc., Grass Valley, CA, USA) and 50 μL of 10% cold (4 °C) trichloroacetic acid (TCA) were gently added to the wells. Microplates were left for 30 min at 4 °C, washed five times with deionized water and left to dry at room temperature for at least 24 h. Subsequently, 70 μL of 0.4% (w/v) sulforhodamine B (Sigma) in 1% acetic acid solution were added to each well and left at room temperature for 20 min. SRB was removed and the plates were washed five times with 1% acetic acid before air drying. Bound SRB was solubilized with 200 μL of 10 mM unbuffered Tris-base solution and plates were left on a plate shaker for at least 10 min. Absorbance was read in a 96-well plate reader at 492 nm subtracting the background measurement at 620 nm. The test optical density (OD) value was defined as the absorbance of each individual well, minus the blank value (“blank” is the mean optical density of the background control wells, n = 8). Mean values and the coefficient of variation (CV) from six replicate wells were calculated automatically. Results were expressed as the “survival fraction” (SF), as shown below.
(§2) For each tested compound a dose-effect curve was produced. Sextuplicate determinations gave a CV (Standard Deviation/mean %) of much less than 10%, resulting in standard error (SE) which was very low in all cases. The data showing inhibition of cellular growth are expressed as the fraction of cells that remains unaffected (fu) (survival fraction, SF), which is derived from the following equation: fu = ODx/ODc where ODx and ODc represent the test and the control optical density, respectively.

MRC-5 normal cells = test: SRB cytotoxicity assay, MRC-5 normal cells; assay type: cell-based; conditions: Homo sapiens, MRC5, 50% growth inhibition, 48 h exposure
Method: Thus, we conducted in vitro studies in two colon cancer cell lines (HT-29 and HCT-15) reported time and dose-dependent stimulation of cell proliferation by LTB4 and 12-HETE [46]. The synthesized acids have been tested in five different human tumour cell lines: HT-29 (colon), A-549 (lung), OAW-42 (ovarian), MDA-MB-231 (breast), HeLa (immortal cells from cervical cancer) and MRC-5 normal cells.
as §1, §2

Compound | RM (±SD) [1] | RA % (±SD), DPPH ([2]; 0.05 mM, 20 min) [%] | RA % (±SD), DPPH ([2]; 0.05 mM, 60 min) [%] | RA % (±SD), DPPH ([2]; 0.1 mM, 20 min) [%] | RA % (±SD), DPPH ([2]; 0.1 mM, 60 min) [%] | ABTS+· (%) (±SD) [3] | IC50 (A-549 (lung)) [µM] | IC50 (MRC-5 normal cells) [µM]
N#Cc1ccc(C=C(C(=O)O)c2ccccc2)cc1 [Compound 1i, 3-(4-Cyanophenyl)-2-phenylacrylic acid] | −0.895 (0.004) ^e | 12 ± 0.3 | 14 ± 0.1 | 28 ± 0.6 | 20 ± 0.8 | 26 ± 0.4% | > 240 | 222 ± 1.3
N#Cc1ccc(C=CC(=O)O)cc1 [Compound 1ii, 3-(4-Cyanophenyl)acrylic acid] | −0.972 (0.032) ^e | 13 ± 0.3 | 9 ± 0.03 | 23 ± 0.5 | 21 ± 1.0 | 47.4% and 47 ± 0.8% | > 240 | > 240
O=C(O)C(=CC=Cc1ccc([N+](=O)[O-])cc1)c1ccccc1 [Compound 2i, 5-(4-Nitrophenyl)-2-phenylpenta-2,4-dienoic acid] | −0.706 (0.062) ^e | 10 ± 0.04 | 11 ± 0.02 | 23 ± 0.7 | 23 ± 0.9 | 26 ± 0.5% | 134 ± 1.6 | 96.3 ± 1.1
O=C(O)C=CC=Cc1ccc([N+](=O)[O-])cc1 [Compound 2ii, 5-(4-Nitrophenyl)penta-2,4-dienoic acid] | −0.868 (0.019) ^e |  | 13 ± 0.04 | 29 ± 1.0 | 24 ± 0.6 | 35 ± 0.9% | > 240 | 240 ± 1
O=C(O)C(=CC=Cc1ccccc1)c1ccccc1 [Compound 3i, 2,5-Diphenylpenta-2,4-dienoic acid] | 0.987 (0.018) ^e | 4 ± 0.02 | 3 ± 0.0 | 5 ± 0.0 | 6 ± 0.04 | 26 ± 0.8% | > 240 | > 240
O=C(O)C=CC=Cc1ccccc1 [Compound 3ii, 5-Phenylpenta-2,4-dienoic acid] | −0.893 (0.002) ^e | 11 ± 0.06 | 7 ± 0.0 | 20 ± 0.2 | 16 ± 0.05 | 31 ± 1.1% | > 240 | 240 ± 1.8
O=C(O)C(=CC(Br)=Cc1ccccc1)c1ccccc1 [Compound 4i, 4-Bromo-2,5-diphenylpenta-2,4-dienoic acid] | 0.566 (0.001) ^e | 7 ± 0.03 | 4 ± 0.01 | 8 ± 0.03 | 5 ± 0.0 | 24 ± 0.5% | 210 ± 1 | 92 ± 1.3
O=C(O)C=CC(Br)=Cc1ccccc1 [Compound 4ii, 4-Bromo-5-phenylpenta-2,4-dienoic acid] | −0.847 (0.044) ^e | 17 ± 0.02 | 13 ± 0.05 | 30 ± 0.9 | 29 ± 0.6 | 26 ± 0.4% | 173.5 ± 1.4 | 24 ± 0.6
